PubChem BioAssay AID256 (DTP/NCI, 2004)
Several values for one entry are separate records, joined by “and”; a condition that tells them apart may be missing. Equal entries are not always repeated. Inconclusive results and toxic doses are left out. Rule for the calls: active = survival T/C of 150% or more; inactive = T/C below 125% in these data.

Test system: CD2F1 mice, L1210 leukemia ip, survival T/C
Assay: NCI In Vivo Anticancer Drug Screen. Data for tumor model L1210 Leukemia (intraperitoneal) in CD2F1 (CDF1) mice
Settings: endpoint: mean survival time, higher = longer survival
Summary of the method: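 Compound-dosed mice with transplantable tumor versus matched vehicle controls; endpoint ratio T/C reported.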

[1] = dose: 100.0 mg/kg/injection, schedule: Q01DX001 (ip), vehicle: saline
[2] = dose: 200.0 mg/kg/injection, schedule: Q01DX001 (ip), vehicle: saline
[3] = dose: 100.0 mg/kg/injection, schedule: Q04DX003 (ip), vehicle: saline
[4] = dose: 200.0 mg/kg/injection, schedule: Q04DX003 (ip), vehicle: saline
[5] = dose: 100.0 mg/kg/injection, schedule: Q04DX002 (ip), vehicle: saline with Tween-80
[6] = dose: 100.0 mg/kg/injection, schedule: Q01DX001 (ip), vehicle: saline with Tween-80
[7] = dose: 100.0 mg/kg/injection, schedule: Q01DX009 (ip), vehicle: saline with Tween-80
[8] = dose: 200.0 mg/kg/injection, schedule: Q01DX001 (ip), vehicle: saline with Tween-80
[9] = dose: 200.0 mg/kg/injection, schedule: Q01DX009 (ip), vehicle: saline with Tween-80
[10] = dose: 400.0 mg/kg/injection, schedule: Q01DX001 (ip), vehicle: saline with Tween-80
[11] = dose: 400.0 mg/kg/injection, schedule: Q01DX009 (ip), vehicle: saline with Tween-80
[12] = dose: 100.0 mg/kg/injection, schedule: Q04DX003 (ip), vehicle: saline with Tween-80
[13] = dose: 200.0 mg/kg/injection, schedule: Q04DX003 (ip), vehicle: saline with Tween-80
[14] = dose: 400.0 mg/kg/injection, schedule: Q04DX003 (ip), vehicle: saline with Tween-80

Measured: T/C

CCOC(=O)CCCCCSc1nn(C2OC(COC(=O)c3ccccc3)C(OC(=O)c3ccccc3)C2OC(=O)c2ccccc2)c(=O)[nH]c1=O (configuration not stated)
inactive: dose: 12.5 mg/kg/injection, schedule: Q01DX005 (ip), vehicle: distilled water + Tween-80 101 % of control | dose: 25.0 mg/kg/injection, schedule: Q01DX005 (ip), vehicle: distilled water + Tween-80 107 % of control | dose: 50.0 mg/kg/injection, schedule: Q01DX005 (ip), vehicle: distilled water + Tween-80 95 % of control | dose: 100.0 mg/kg/injection, schedule: Q01DX005 (ip), vehicle: distilled water + Tween-80 106 % of control | dose: 200.0 mg/kg/injection, schedule: Q01DX005 (ip), vehicle: distilled water + Tween-80 107 % of control

CN1CCN(CCCN2C(=O)C3CC=CCC3C2=O)CC1 (configuration not stated)
inactive: [1] 102 % of control | [2] 93 % of control

CN(C)CCCNC/C=C\CNCCCN(C)C
inactive: [3] 101 % of control | [4] 101 % of control

CC1(C)N=C(N)N=C(N)N1c1cccc([N+](=O)[O-])c1
inactive: [5] 96 % of control

CCOC(=O)C(=Cc1ccc(O)c(OC)c1)C(=O)OCC
inactive: [6] 104 % of control | [7] 93 % of control | [8] 101 % of control | [9] 101 % of control | [10] 108 % of control | [11] 101 % of control

CN(C)C(=O)c1ccc[n+](CC(=O)NCc2ccccc2)c1
inactive: [3] 98 % of control | [4] 98 % of control

CNC(=O)Nc1ccc(C(=O)NC(C)C)cc1
inactive: dose: 22.0 mg/kg/injection, schedule: Q01DX009 (ip), vehicle: other 93 % of control | dose: 33.0 mg/kg/injection, schedule: Q01DX009 (ip), vehicle: other 102 % of control | dose: 50.0 mg/kg/injection, schedule: Q01DX009 (ip), vehicle: other 94 % of control | dose: 100.0 mg/kg/injection, schedule: Q01DX009 (ip), vehicle: other 95 % of control | dose: 200.0 mg/kg/injection, schedule: Q01DX009 (ip), vehicle: other 91 % of control | dose: 400.0 mg/kg/injection, schedule: Q01DX009 (ip), vehicle: other 96 % of control | dose: 800.0 mg/kg/injection, schedule: Q01DX009 (ip), vehicle: other 100 % of control

O=C(/C=C/c1ccccc1)NC(=S)NCc1ccccc1
inactive: [6] 91 % of control | [7] 97 % of control and 100 % of control | [5] 89 % of control and 94 % of control and 98 % of control | [8] 88 % of control | [9] 94 % of control and 104 % of control | [10] 91 % of control | [11] 101 % of control and 105 % of control

CN(C)Cc1cc(C(C)(C)CC(C)(C)C)cc(CN(C)C)c1O
inactive: dose: 25.0 mg/kg/injection, schedule: Q04DX003 (ip), vehicle: saline with Tween-80 98 % of control | dose: 50.0 mg/kg/injection, schedule: Q04DX003 (ip), vehicle: saline with Tween-80 100 % of control | [12] 96 % of control and 97 % of control

O=C(O)c1ccccc1C(=O)NCCc1c[nH]c2ccccc12
inactive: [7] 104 % of control | [12] 96 % of control | [9] 96 % of control | [13] 96 % of control | [11] 102 % of control | [14] 95 % of control

CC(C)(O)C1CC2C=CC1C2 (configuration not stated)
inactive: [5] 98 % of control | dose: 200.0 mg/kg/injection, schedule: Q04DX002 (ip), vehicle: saline with Tween-80 102 % of control | dose: 400.0 mg/kg/injection, schedule: Q04DX002 (ip), vehicle: saline with Tween-80 94 % of control

CCSC(C)CC(=O)O (configuration not stated)
inactive: [1] 103 % of control | [2] 103 % of control

O=C(O)c1c(Cl)cc(Cl)c(-c2c(Cl)cc(Cl)c(C(=O)O)c2Cl)c1Cl
inactive: [7] 103 % of control | [12] 92 % of control | [9] 98 % of control | [13] 98 % of control | [11] 104 % of control | [14] 100 % of control
